Measurements from patent US7625875B2 (priority 2002, dated 2009).
Read-outs that look alike come from different tables or passages of the source.

Legend:
VZV = test: Antiviral activity, VZV (HFF); format: cell-based; conditions: Human alphaherpesvirus 3
BVDV (strain NADL) = test: BVDV cell protection assay (CPA); format: cell-based; conditions: Bovine viral diarrhea virus isolates and strains, MOI of BVDV 0.04
RSV type A = test: Antiviral activity, RSV type A (MA-104); format: cell-based; conditions: human respiratory syncytial virus, MA104
BVDV = format: cell-based, bovine viral diarrhea virus; conditions: for EC4 log: MDBK
[1] = system: MDCK, canine kidney cells; test: Cytotoxicity, MDCK; format: cell-based
Influenza A/H3N2 = test: Antiviral activity, Influenza A/H3N2 (MDCK); format: cell-based; conditions: Influenza A virus
[2] = system: HepG2 human hepatoma cell line; test: Cytotoxicity (cell proliferation) assay, HepG2; conditions: cells grown on collagen coated plates for 4 or 10 d
[3] = Cytotoxicity (cell proliferation) assay, HepG2; conditions: human, HepG2 cells
HIV = format: cell-based
[4] = Stability in human plasma; conditions: 37° C.

CC1(O)C(O)C(CO)OC1n1ccc(N)nc1=O (centres unmarked) [mCyd, 4-Amino-1-(3,4-dihydroxy-5-hydroxymethyl-3-methyl-tetrahydro-furan-2-yl)-1H-pyrimidine-2-one]
EC50 (VZV): > 20 µg/mL | EC50 (BVDV (strain NADL)): 0.5 µM | EC50 (RSV type A): > 200 µM | EC4 log (BVDV; BVDV I-N-dIns ncp (recombinant)): 7.14 μM | EC4 log (BVDV; BVDV I-NADL cp (recombinant)): 8.22 μM | suppression of de novo BVDV production (BVDV; subcytotoxic concentrations (circa 20 μM)): up to 6 logs | CC50 ([1]; Influenza A/H1N1 line): > 200 µM | CC50 ([1]; Influenza A/H3N2 line): 45 to 65 µM | CC50 ([1]; Influenza B line): 55 to 140 µM | EC50 (Influenza A/H3N2): > 20 µM | CC50 [2]: > 200 µM | CC50 [3]: 200 µM | activity against HIV (HIV): no activity | in vitro stability, deamination to mUrd [4]: remained essentially unchanged
